Experimental data published in ChEMBL document CHEMBL1131905, “Tokaramide A, a new cathepsin B inhibitor from the marine sponge Theonella aff. mirabilis” (Bioorg Med Chem Lett, 1999).

What was measured:
Cathepsin B [1] = target: T1, Cathepsin B (Homo sapiens, UniProt P07858); test: Inhibitory activity against Cathepsin B was determined
Cathepsin B [2] = target: T1, Cathepsin B; test: Inhibitory activity against Cathepsin B at a concentration of 10 ng/mL
Cathepsin B [3] = target: T1, Cathepsin B; test: Inhibitory activity against Cathepsin B at a concentration of 1 ng/mL
Cathepsin B [4] = target: T1, Cathepsin B; test: Inhibitory activity against Cathepsin B at a concentration of 200 ng/mL
Cathepsin B [5] = target: T1, Cathepsin B; test: Inhibitory activity against Cathepsin B at a concentration of 400 ng/mL
Cathepsin B [6] = target: T1, Cathepsin B; test: Inhibitory activity against Cathepsin B at a concentration of 50 ng/mL
Cathepsin B [7] = target: T1, Cathepsin B; test: Inhibitory activity against Cathepsin B at a concentration of 70 ng/mL
Cathepsin B [8] = target: T1, Cathepsin B; test: Inhibitory activity against Cathepsin B at a concentration of 7 ng/mL
Cathepsin B [9] = target: T1, Cathepsin B; test: Inhibitory activity against Cathepsin B at a concentration of 4 ng/mL
Cathepsin B [10] = target: T1, Cathepsin B; test: Inhibitory activity against Cathepsin B at a concentration of 1000 ng/mL
Cathepsin B [11] = target: T1, Cathepsin B; test: Inhibitory activity against Cathepsin B at a concentration of 900 ng/mL
Cathepsin B [12] = target: T1, Cathepsin B; settings: 40 ng/mL
Description: Inhibitory activity against Cathepsin B at a concentration of 40 ng/mL

| IC50 (Cathepsin B [1]) | inhibition (Cathepsin B [2]) | inhibition (Cathepsin B [3]) | inhibition (Cathepsin B [5]) | inhibition (Cathepsin B [7]) | inhibition (Cathepsin B [8]) | inhibition (Cathepsin B [9]) | inhibition (Cathepsin B [12]) | Structure (SMILES) | inhibition (Cathepsin B [4]) | inhibition (Cathepsin B [6]) | inhibition (Cathepsin B [10]) | inhibition (Cathepsin B [11]) |
| --- | --- | --- | --- | --- | --- | --- | --- | --- | --- | --- | --- | --- |
| 13.7 nM | 75% | 24% | 100% | 95% | 52% | 29% |  | CC(C)C[C@H](NC(=O)[C@H]1O[C@@H]1C(=O)O)C(=O)NCCCCN=C(N)N [E-64] | 98% | 90% |  |  |
| 60.9 nM | 30% | 10% | 90% | 70% | 16% | 12% | 45% | CC(C)[C@H](NC(=O)c1ccc(O)cc1)C(=O)N[C@H](C(=O)N[C@H](C=O)CCCN=C(N)N)C(C)C [TOKARAMIDE A] |  |  |  | 100% |

| Structure (SMILES) | IC50 (Cathepsin B [1]) | inhibition (Cathepsin B [2]) | inhibition (Cathepsin B [3]) | inhibition (Cathepsin B [5]) | inhibition (Cathepsin B [7]) | inhibition (Cathepsin B [8]) | inhibition (Cathepsin B [9]) | inhibition (Cathepsin B [12]) | inhibition (Cathepsin B [4]) | inhibition (Cathepsin B [6]) | inhibition (Cathepsin B [10]) | inhibition (Cathepsin B [11]) |
| --- | --- | --- | --- | --- | --- | --- | --- | --- | --- | --- | --- | --- |
| CC(=O)N[C@@H](CC(C)C)C(=O)N[C@@H](CC(C)C)C(=O)N[C@H](C=O)CCCNC(=N)N [LEUPEPTIN] | 21.6 nM | 55% | 15% | 100% | 82% | 35% | 25% |  | 95% | 75% | 100% | 100% |
